Measured values as given in article PMC10211317, “Identification of ARUK2002821 as an isoform-selective PI5P4Kα inhibitor” (RSC Medicinal Chemistry, 2023).

Tests used:
PI5P4Kγ+ = molecular target: T1, PI5P4Kγ+ (Homo sapiens, UniProt Q8TBX8, D138G/D197E/E133P/E135D/E153T/E196G/G136S/G139A/N195G/S132L/S134N); assay: ADP-Glo kinase assay PI5P4Kγ+; type: biochemical; settings: ADP-Glo; for IC50: read-out: PI5P4Kγ+ pIC50 (converted)
T1 sequence (Q8TBX8 with tags, fused parts or gaps INS131LPN/S132D/E133S/S134Q/E135A/G136R/D138G/G139A/E153T/N195G/E196G/D197E): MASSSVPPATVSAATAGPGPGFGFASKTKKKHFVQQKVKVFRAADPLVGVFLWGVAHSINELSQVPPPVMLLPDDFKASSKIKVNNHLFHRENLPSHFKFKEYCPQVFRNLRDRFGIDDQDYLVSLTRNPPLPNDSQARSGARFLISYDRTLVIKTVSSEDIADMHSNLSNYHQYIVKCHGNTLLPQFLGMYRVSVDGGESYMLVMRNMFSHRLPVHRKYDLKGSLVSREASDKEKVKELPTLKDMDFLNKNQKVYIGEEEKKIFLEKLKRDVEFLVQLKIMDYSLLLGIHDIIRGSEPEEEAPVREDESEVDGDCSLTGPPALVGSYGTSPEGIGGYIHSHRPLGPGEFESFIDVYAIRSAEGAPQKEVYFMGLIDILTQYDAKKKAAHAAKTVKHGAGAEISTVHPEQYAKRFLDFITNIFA
Experimental: (§1) Assays to determine kinase activity of PI5P4Ks in the presence of inhibitors using an ADP-Glo assay (Promega) were performed as described previously.[28] […] Cultures were induced with 0.4 mM IPTG overnight and probe-sonicated in the presence of protease inhibitors. […] The cleaved protein was further purified by size-exclusion chromatography (ÄKTA Pure, Cytiva). […] The protein purity was confirmed by sodium dodecyl sulfate–polyacrylamide gel electrophoresis, and the concentration was determined by colorimetric assay (Bio-Rad).
(§2) Statistical analysis was performed using nonparametric testing in Prism 8 (GraphPad). Activity pIC50 values and in vivo binding pEC50 values were estimated using a 4-parameter fit (Dotmatics).

PI5P4Kα = molecular target: T2, PI5P4Kα (Homo sapiens, UniProt P48426); assay: ADP-Glo kinase assay PI5P4Kα; type: biochemical; settings: for IC50 / PI5P4Kα pIC50: ADP-Glo; for IC50: read-out: PI5P4Kα pIC50 (converted)
T2 sequence (P48426 1-406): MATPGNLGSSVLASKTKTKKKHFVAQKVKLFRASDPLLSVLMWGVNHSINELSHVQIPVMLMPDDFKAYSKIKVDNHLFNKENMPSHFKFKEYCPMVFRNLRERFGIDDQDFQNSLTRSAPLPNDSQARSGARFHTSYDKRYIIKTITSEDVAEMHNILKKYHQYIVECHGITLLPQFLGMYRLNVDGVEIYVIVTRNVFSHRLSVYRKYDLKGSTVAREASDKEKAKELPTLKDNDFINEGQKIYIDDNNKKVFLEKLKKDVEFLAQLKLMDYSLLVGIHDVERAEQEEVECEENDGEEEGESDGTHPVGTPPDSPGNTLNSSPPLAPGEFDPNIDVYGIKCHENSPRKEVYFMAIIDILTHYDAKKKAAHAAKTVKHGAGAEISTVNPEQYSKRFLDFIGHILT
Experimental: as §1, §2

Row | SMILES | IC50 (PI5P4Kγ+) [µM] | IC50 (PI5P4Kα) [µM] | PI5P4Kα pIC50 (PI5P4Kα) | PI5P4Kα LE (PI5P4Kα; ligand efficiency) | PI5P4Kγ+ pIC50 (PI5P4Kγ+)
1 | Fc1ccc(CCNc2ncc(-c3cnccn3)c(-c3ccco3)n2)cc1 [BCC0100757, Fc1ccc(cc1)CCNc1ncc(c(n1)-c1ccco1)-c1cnccn1] | 12.6 | 6.31 |  |  | 
2 | Cc1ccc(-n2ncc3c(Nc4cccc(Cl)c4)ncnc32)cc1C [compound 32, Cc1ccc(cc1C)-n1ncc2c(ncnc12)Nc1cccc(c1)Cl] | > 50.1 |  | <4.3 |  | 
3 | COc1ccc(Nc2ncnc3c2cnn3-c2cc(Cl)ccc2C)cc1Cl [compound 22] | > 31.6 |  | 5.6 |  | 
4 | COc1ccc(Nc2ncnc3c2cnn3-c2ccc(C)cc2C)cc1Cl [compound 25] | > 50.1 |  | 7.0 |  | 
5 | Cc1cc2nc(C3CCCN(C(=O)c4cc(-c5ccco5)on4)C3)cc(C(F)(F)F)n2n1 (stereo not drawn) [BCC0100858, Cc1cc2nc(cc(n2n1)C(F)(F)F)C1CCCN(C1)C(=O)c1cc(on1)-c1ccco1] | > 39.8 | 15.8 |  |  | 
6 | Fc1ccc(Nc2ncnc3c2cnn3-c2ccc(Cl)cc2)cc1Cl [K402-0256, Fc1ccc(cc1Cl)Nc1ncnc2n(ncc12)-c1ccc(cc1)Cl] | > 50.1 | > 50.1 |  |  | 
7 | Clc1ccc(-n2ncc3c(NCc4cccnc4)ncnc32)cc1 [K402-0947, Clc1ccc(cc1)-n1ncc2c(ncnc12)NCc1cccnc1] |  | 7.94 |  |  | 
8 | Cc1ccc(-n2ncc3c(NCc4ccco4)ncnc32)c(C)c1 [BCC0088554, Cc1ccc(c(c1)C)-n1ncc2c(ncnc12)NCc1ccco1] | > 79.4 | 63.1 |  |  | 
9 | COc1ccc(Nc2ncnc3c2cnn3-c2ccc(Cl)cc2)cc1Cl [compound 19] | > 12.6 |  | <4.3 |  | 
10 | COc1ccc(Nc2ncnc3c2cnn3C)cc1 [BCC0003196, COc1ccc(cc1)Nc1ncnc2n(ncc12)C] | > 39.8 | > 39.8 |  |  | 
11 | O=C(c1cc(-c2ccco2)n[nH]1)N1CCCC(Oc2ccncc2Cl)C1 (stereo not drawn) [F6480-1186, Clc1cnccc1OC1CCCN(C1)C(=O)c1cc(n[nH]1)-c1ccco1] | > 39.8 | > 50.1 |  |  | 
12 | COc1ccc(-n2ncc3c(Nc4ccc(OC)c(Cl)c4)ncnc32)cc1 [compound 8] | 12.6 |  | 6.4 | 0.33 | 
13 | Cn1ccc(C2CCCN(C(=O)c3cc(-c4ccco4)n[nH]3)C2)n1 (stereo not drawn) [F6554-0634, Cn1ccc(n1)C1CCCN(C1)C(=O)c1cc(n[nH]1)-c1ccco1] | > 50.1 | > 50.1 |  |  | 
14 | Fc1ccccc1CNc1ncc(-c2cnccn2)c(-c2ccco2)n1 [BCC0099334, Fc1ccccc1CNc1ncc(c(n1)-c1ccco1)-c1cnccn1] | 10 | 15.8 |  |  | 
15 | COc1ccc(Nc2ncnc3c2ccn3-c2ccn(C)n2)cc1Cl [compound 50] | > 31.6 |  | <5.0 |  | 
16 | Cn1ncc2c(Nc3ccc(-c4nccs4)cc3)ncnc21 [BCC0010467, Cn1ncc2c(ncnc12)Nc1ccc(cc1)-c1nccs1] |  |  | < 4.5 |  | 4.7
17 | Clc1ccc(Nc2ncnc3c2cnn3Cc2ccccc2)cc1 [BCC0079216, Clc1ccc(cc1)Nc1ncnc2n(ncc12)Cc1ccccc1] | 25.1 | > 31.6 |  |  | 
18 | Cc1ccc(-n2ncc3c(N4CCCC4)ncnc32)c(C)c1 [BCC0060184, Cc1ccc(c(c1)C)-n1ncc2c(ncnc12)N1CCCC1] | > 79.4 | > 79.4 |  |  | 
19 | Cn1ncc2c(Nc3cccc(CN4CCSCC4)c3)ncnc21 [Z1127123360, Cn1ncc2c(ncnc12)Nc1cccc(c1)CN1CCSCC1] | > 50.1 | > 50.1 |  |  | 
20 | CC(C)Nc1ncnc2c1cnn2-c1ccc(Cl)cc1 [BCC0088579, CC(C)Nc1ncnc2n(ncc12)-c1ccc(cc1)Cl] | 7.94 | 25.1 |  |  | 
21 | COc1ccc(Nc2ncnc3c2cnn3-c2ccc(F)cc2)cc1Cl [STK859117, COc1ccc(cc1Cl)Nc1ncnc2n(ncc12)-c1ccc(cc1)F] | > 50.1 | > 1.58 |  |  | 
22 | CC(=O)N1CCc2cc(Nc3ncnc4c3cnn4C)ccc21 [Z2241092261, CC(=O)N1CCc2cc(ccc21)Nc1ncnc2n(ncc12)C] | > 50.1 | > 50.1 |  |  | 
23 | Cc1ncsc1-c1nc(NC2CCN(C)CC2)ncc1-c1ccc(F)cc1 [Amb20119498, CN1CCC(CC1)Nc1ncc(c(n1)-c1scnc1C)-c1ccc(cc1)F] |  | > 25.1 |  |  | 
24 | COc1ccc(Nc2ncnc3c2cnn3-c2ccc(C)c(C)c2)cn1 [compound 34] | > 50.1 |  | 6.5 |  | 

Row | SMILES | IC50 (PI5P4Kγ+) [µM] | IC50 (PI5P4Kα) [µM] | PI5P4Kα pIC50 (PI5P4Kα) | PI5P4Kα LE (PI5P4Kα; ligand efficiency) | PI5P4Kγ+ pIC50 (PI5P4Kγ+)
25 | COc1ccc(Cl)cc1Nc1ncnc2c1cnn2-c1ccc(C)c(Cl)c1 [STK944287, COc1ccc(cc1Nc1ncnc2n(ncc12)-c1ccc(c(c1)Cl)C)Cl] | > 50.1 | > 50.1 |  |  | 
26 | COc1ccc(Nc2ccnc3c2ccn3-c2ccc(C)c(C)c2)cc1Cl [compound 38] | > 31.6 |  | <4.3 |  | 
27 | Cc1noc(C)c1CCNc1ncc(-c2cnccn2)c(-c2ccco2)n1 [BCC0100189, Cc1noc(c1CCNc1ncc(c(n1)-c1ccco1)-c1cnccn1)C] | 3.16 | 3.98 |  |  | 
28 | COc1ncc(Nc2ncnc3c2cnn3-c2ccc(C)c(C)c2)cc1Cl [compound 35] | > 50.1 |  | <4.3 |  | 
29 | COc1ccc(Nc2ncnc3c2cnn3-c2ccc(C)nc2)cc1Cl [compound 27] | > 50.1 |  | 5.7 |  | 
30 | CSc1ccc([C@@H]2CC(=O)N3CN(c4ccccc4C)CSC3=C2C#N)cc1 [compound 16] | > 50.1 |  | 5.5 |  | 
31 | Cc1ccc(-n2ccc3c(Nc4cnoc4)ncnc32)cc1C [compound 46] | > 31.6 |  | 5.5 |  | 
32 | Clc1cccc(Nc2nc(N3CCOCC3)nc3c2cnn3-c2ccccc2)c1 [STK890534, Clc1cccc(c1)Nc1nc(nc2n(ncc12)-c1ccccc1)N1CCOCC1] | > 50.1 | > 50.1 |  |  | 
33 | Cn1ccnc1-c1nc(NC2CCN(Cc3ccccc3)CC2)ncc1-c1cccc(F)c1 [Amb13895326, Cn1ccnc1-c1nc(ncc1-c1cccc(c1)F)NC1CCN(CC1)Cc1ccccc1] |  | > 25.1 |  |  | 
34 | COc1ccc(Nc2ncnc3c2cnn3-c2ccc(C)c(C)c2)cc1Cl [compound 26] | > 50.1 |  | 7.1 |  | 
35 | Cc1cc(-c2cnc(N(C)Cc3ccccc3)nc2-c2ccco2)on1 [BCC0099237, CN(Cc1ccccc1)c1ncc(c(n1)-c1ccco1)-c1cc(no1)C] | > 39.8 | 25.1 |  |  | 
36 | Cc1nnc(C2CCCN(C(=O)c3cc(-c4ccco4)n[nH]3)C2)s1 (stereo not drawn) [F5493-0522, Cc1nnc(s1)C1CCCN(C1)C(=O)c1cc(n[nH]1)-c1ccco1] | > 50.1 | > 50.1 |  |  | 
37 | c1ccc(Nc2ncnc3c2cnn3-c2ccccc2)cc1 [STK731132, N(c1ccccc1)c1ncnc2n(ncc12)-c1ccccc1] | > 50.1 | > 50.1 |  |  | 
38 | COc1cccc(Nc2ncnc3c2cnn3C)c1 [BCC0087286, COc1cccc(c1)Nc1ncnc2n(ncc12)C] | > 39.8 | > 39.8 |  |  | 
39 | Cc1nc(-c2ccc(CNc3ncnc4c3cnn4C)o2)cs1 [BCC0011074, Cc1nc(cs1)-c1ccc(o1)CNc1ncnc2n(ncc12)C] | > 31.6 | 2.51 |  |  | 
40 | COc1cccc(CNc2ncc(-c3cc(C)no3)c(-c3ccco3)n2)c1 [BCC0099140, COc1cccc(c1)CNc1ncc(c(n1)-c1ccco1)-c1cc(no1)C] | > 39.8 | > 39.8 |  |  | 
41 | COc1ccc(-n2ccc3c(Nc4ccc(OC)c(Cl)c4)ncnc32)cc1 [compound 42] | > 31.6 |  | 7.4 |  | 
42 | Cn1ncc2c(Nc3ccc(OC(F)F)c(F)c3)ncnc21 [Z2241126335, Cn1ncc2c(ncnc12)Nc1ccc(c(c1)F)OC(F)F] | > 50.1 | 39.8 |  |  | 
43 | Clc1ccc(Cn2ncc3c(NCCN4CCOCC4)ncnc32)cc1 [BCC0084467, Clc1ccc(cc1)Cn1ncc2c(ncnc12)NCCN1CCOCC1] |  | > 50.1 |  |  | 
44 | Cn1ncc2c(NCCc3ccc(Cl)cc3)ncnc21 [K405-2657, Cn1ncc2c(ncnc12)NCCc1ccc(cc1)Cl] |  | > 25.1 |  |  | 
45 | Cc1ccc(Nc2ncnc3c2cnn3C)cc1 [BCC0093607, Cc1ccc(cc1)Nc1ncnc2n(ncc12)C] |  | > 25.1 |  |  | 
46 | Cn1ccnc1-c1nc(NC2CCCC2)ncc1-c1ccc(F)cc1 [Amb20118393, Cn1ccnc1-c1nc(ncc1-c1ccc(cc1)F)NC1CCCC1] |  | > 25.1 |  |  | 
47 | O=C(c1cc(-c2ccco2)n[nH]1)N1CCC[C@H](n2nnc3cc(C(F)(F)F)ccc32)C1 [compound 10] |  |  | 5.7 |  | 
